In PubChem BioAssay (NCI):
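Protocol summary: plate cells (96-well), add compound at 5 concentrations, incubate 48 h, interpolate endpoints linearly. GI50 marks 50% less growth. TGI: total growth inhibition.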

Tests used:
Experiment in all cases: growth of human tumour cells (NCI), 48 h
[1] = test system: A549 NSCLC
[2] = test system: HOP-92 NSCLC
[3] = test system: MOLT-4 leukemia
[4] = test system: NCI-H23 lung
[5] = test system: OVCAR-3 ovarian
[6] = test system: OVCAR-5 ovarian
[7] = test system: SK-MEL-2 melanoma
[8] = test system: UACC-62 melanoma
[9] = test system: UO-31 renal
[10] = test system: MALME-3M melanoma

In the case of `O=C1CCC(c2ccccc2)=NN1c1nsc2ccccc12`, the TGI [1] is reported as over 100 µM, the TGI [2] is reported as over 100 µM and the TGI [3] is reported as over 100 µM. For the same compound, the TGI [4] was over 100 µM, the TGI [5] was over 100 µM and the TGI [6] was over 100 µM. The TGI [7] was over 100 µM, the TGI [8] was over 100 µM and the TGI [9] was over 100 µM.

Work on `COc1cnc2c(c1)C(=O)c1c-2n(CCCN2CCOCC2)c(=O)c2cc(Cl)ccc12` yielded a GI50 [2] of 32.7 µM, a TGI [2] of over 100 µM and a GI50 [10] of over 100 µM. It also gave a TGI [10] of over 100 µM, a GI50 [3] of 0.267 µM and a TGI [3] of over 100 µM. The GI50 [4] was 0.308 µM, the TGI [4] was over 100 µM and the GI50 [5] was 0.783 µM. The TGI [5] was over 100 µM, the GI50 [6] was over 100 µM and the TGI [6] was over 100 µM. The GI50 [7] was 30.5 µM, the TGI [7] was over 100 µM and the GI50 [8] was 0.187 µM. It also gave a TGI [8] of over 100 µM, a GI50 [9] of 0.349 µM and a TGI [9] of over 100 µM.

With `COc1cccc(N2C(Cl)C(=O)C2c2c[nH]c3ccccc23)c1` (configuration not stated) the TGI [1] was over 100 µM, the TGI [2] was over 100 µM and the TGI [10] was over 100 µM. For the same compound, the TGI [3] was over 100 µM, the TGI [4] was over 100 µM and the TGI [5] was over 100 µM. It also gave a TGI [6] of over 100 µM, a TGI [7] of over 100 µM and a TGI [8] of over 100 µM. For the same compound, the TGI [9] was over 100 µM.
